Data: patent US4191780A, “Bromhexine derivatives and process for making same” (priority 1978, dated 1980)
“Also recorded” adds a separate entry of the source.

Legend:
[1] = Acute toxicity in rats treated orally; assay type: in vivo; conditions: oral
[2] = Long-term toxicity in rats: urine analysis; assay type: in vivo
Procedure: Urine analysis is carried out on 6 animals per group (3 males and 3 females) before as well as 30 and 60 days after treatment. Control group and the animals receiving 250 mg/kg Bromhexine and 350 mg/kg IFT 1026 respectively are observed.
The amount, aspect, colour, pH value, albumin, glucose, bilirubin levels and ketone bodies are recorded using also Ames reactive stripes.

[3] = test system: blood pressure and heart rate; assay: Action on blood pressure and heart rate in the anesthetized rat; assay type: in vivo; conditions: intraperitoneal
Procedure: After intraperitoneal administration of increasing doses of IFT 1026, blood pressure, heart rate and the amplitude of heart contractions are unchanged. The effect of IFT 1026 at the dose of 450 mg/kg on blood pressure in the anesthesized rat is exemplified by the graph in FIG. No. 1.
FIG. 1--Arterial pressure recorded in the anaesthetized rat before and after IFT 1026 administration.

[4] = test system: amphetamine-induced stereotypies; assay: Action on the amphetamine-induced stereotypies and toxicity on mice; conditions: 500 mg/kg/10 ml p.o., 60 min before dl-amphetamine 16 mg/kg/ml i.p.
Procedure: Stereotypies and death are caused 60 min. after treatment with IFT 1026 (500 mg/kg/10 ml p.o.) by injecting dl-amphetamine (16 mg/kg/ml i.p.) to groups of 10 male albino Swiss mice per cage.

[5] = test system: Cough elicited by 15% citric acid spray; assay: Antitussive effect in Guinea-pigs and mice (overall); assay type: in vivo; conditions: mice (oral) and Guinea-pigs (i.p.)
Procedure: (6) Antitussive effect in Guinea-pigs and mice
The effect was tested 1 hour after oral administration and 30 min. after intraperitoneal application of the antitussive agents on mice and Guinea-pigs respectively.

[6] = test system: bronchial secretion; conditions: animal experiments; Engelhorn 1966, Merker 1966, Boyd 1966; cited from earlier work
[7] = test system: various types of cough; conditions: animal experiments; Engelhorn 1966, Merker 1966, Boyd 1966; cited from earlier work

COc1ccccc1OCC(=O)Nc1c(Br)cc(Br)cc1CN(C)C1CCCCC1 [IFT 1026, N-(2-guaiacol-glycolyl-amino-3,5-dibromobenzyl)N-cyclohexylmethylamine]
behaviour / clinical signs ([1]; high doses (up to 3000 mg/kg)): slight depression in behaviour, occasional tremor and stiffness | lethal cases ([1]; increasing doses up to 3000 mg/kg, up to the seventh day after treatment): no lethal cases | urine amount, aspect, colour, pH, albumin, glucose, bilirubin, ketone bodies ([2]; 250 mg/kg Bromhexine, 350 mg/kg IFT 1026, 30 and 60 days): no changes occur in said parameters | impairment in the kidney ([2]; 350 mg/kg IFT 1026): no impairment in the kidney | amplitude of heart contractions ([3]; increasing doses): unchanged | heart rate ([3]; increasing doses): unchanged | blood pressure ([3]; rat, increasing doses (450 mg/kg in FIG. 1)): unchanged | amphetamine-induced death [4]: not changed | amphetamine-induced stereotypies [4]: not changed | antitussive effect compared in terms of the parent compound (Bromhexine) [5]: the same when compared in terms of the parent compound | antitussive effect compared with Bromhexine [5]: slightly weaker than Bromhexine; also recorded: approximately the same as that of Bromhexine

CN(Cc1cc(Br)cc(Br)c1N)C1CCCCC1 [Bromhexine, N-cyclohexyl-N-methyl-2-(2-amino-3,5-dibromo)benzylammonium chloride]
stimulation of bronchial secretion [6]: marked stimulation | effects on various types of cough [7]: depressing effects
